The target in this experiment is hQC (Homo sapiens, UniProt Q16769). Put plainly: Fluorometric assay of glutaminyl cyclase (QC) inhibition, H-Gln-βNA or H-Gln-AMC substrate. Format: biochemical. The note with it: read-out: IC50. Here is the method:
All compounds were immediately tested regarding their activity as hQC inhibitors.
The purity of the compounds was determined by HPLC-MS. The IC50 value against hQC was measured using the fluorescent assay.
All measurements were performed with a BioAssay Reader HTS-7000Plus for microplates (Perkin Elmer) at 30° C. QC activity was evaluated fluorometrically using H-Gln-βNA. The samples consisted of 0.2 mM fluorogenic substrate, 0.25 U pyroglutamyl aminopeptidase (Unizyme, Hørsholm, Denmark) in 0.2 M Tris/HCl, pH 8.0 containing 20 mM EDTA and an appropriately diluted aliquot of QC in a final volume of 250 μl. Excitation/emission wavelengths were 320/410 nm. The assay reactions were initiated by addition of glutaminyl cyclase. QC activity was determined from a standard curve of β-naphthylamine under assay conditions. One unit is defined as the amount of QC catalyzing the formation of 1 μmol pGlu-βNA from H-Gln-βNA per minute under the described conditions.
In a second fluorometric assay, QC was activity was determined using H-Gln-AMC as substrate. Reactions were carried out at 30° C. utilizing the NOVOStar reader for microplates (BMG labtechnologies). The samples consisted of varying concentrations of the fluorogenic substrate, 0.1 U pyroglutamyl aminopeptidase (Qiagen) in 0.05 M Tris/HCl, pH 8.0 containing 5 mM EDTA and an appropriately diluted aliquot of QC in a final volume of 250 μl. Excitation/emission wavelengths were 380/460 nm. The assay reactions were initiated by addition of glutaminyl cyclase. QC activity was determined from a standard curve of 7-amino-4-methylcoumarin under assay conditions. The kinetic data were evaluated using GraFit software.
For inhibitor testing, the sample composition was the same as described above, except of the putative inhibitory compound added. For a rapid test of QC-inhibition, samples contained 4 mM of the respective inhibitor and a substrate concentration at 1 KM. For detailed investigations of the inhibition and determination of Ki-values, influence of the inhibitor on the auxiliary enzymes was investigated first. In every case, there was no influence on either enzyme detected, thus enabling the reliable determination of the QC inhibition. The inhibitory constant was evaluated by fitting the set of progress curves to the general equation for competitive inhibition using GraFit software.

hQC, sequence (Q16769 29-361): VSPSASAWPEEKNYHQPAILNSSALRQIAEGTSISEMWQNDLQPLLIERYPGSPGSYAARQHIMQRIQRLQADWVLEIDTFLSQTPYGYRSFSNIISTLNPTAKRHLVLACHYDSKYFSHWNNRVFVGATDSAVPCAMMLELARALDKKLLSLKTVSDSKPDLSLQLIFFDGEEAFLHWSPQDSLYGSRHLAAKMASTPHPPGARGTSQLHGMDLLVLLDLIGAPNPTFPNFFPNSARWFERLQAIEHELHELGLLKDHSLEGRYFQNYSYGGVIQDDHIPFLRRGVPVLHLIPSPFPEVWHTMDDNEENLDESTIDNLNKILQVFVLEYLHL

Turning to `CCCCC1/C(=N\CC(=O)N2CCc3ccccc3C2)NC(=O)N1CCCn1ccnc1` (stereo not drawn) [Compound 74, 5-Butyl-4-2-(3,4-dihydro-1H-isoquinolin-2-yl)-2-oxo-ethylimino-1-(3-imidazol-1-yl-propyl)-imidazolidin-2-one], the half-maximal inhibitory concentration (IC50) came out at 7.6 µM.
On to `CN(C)c1ccc(C2/C(=N\Cn3nnc4ccccc43)NC(=O)N2c2ccc3[nH]cnc3c2)cc1` (stereo not drawn) [Compound 322, 1-(1H-Benzoimidazol-5-yl)-4-benzotriazol-1-ylmethylimino-5-(4-dimethylamino-phenyl)-imidazolidin-2-one], for which the half-inhibitory concentration (IC50) turned out to be 1.3 µM.
The value for `Cc1cccc(C2/C(=N\Cn3nnc4ccccc43)NC(=S)N2c2ccc3[nH]cnc3c2)c1` (stereo not drawn) [Compound 285, 1-(1H-Benzoimidazol-5-yl)-4-benzotriazol-1-ylmethylimino-5-m-tolyl-imidazolidine-2-thione] was 1.3 µM; that for `Cc1ccc2occ(C3/C(=N/C4CCc5ccccc54)NC(=O)N3c3ccc4[nH]cnc4c3)c(=O)c2c1` (stereo not drawn) [Compound 213, 1-(1H-Benzoimidazol-5-yl)-4-indan-1-ylimino-5-(6-methyl-4-oxo-4H-chromen-3-yl)-imidazolidin-2-one] was 0.004 µM; that for `O=C(C/N=C1\NC(=O)N(CCCn2ccnc2)C1c1ccccc1F)N1CCc2ccccc2C1` (stereo not drawn) [Compound 76, 4-2-(3,4-Dihydro-1H-isoquinolin-2-yl)-2-oxo-ethylimino-5-(2-fluoro-phenyl)-1-(3-imidazol-1-yl-propyl)-imidazolidin-2-one] was 5.8 µM.
To `Cc1nc[nH]c1C1/C(=N/C2CCc3ccccc32)NC(=O)N1c1ccc2nc[nH]c2c1` (stereo not drawn) [Compound 257, 3-(3H-Benzoimidazol-5-yl)-5-indan-1-ylimino-5′-methyl-1,3,4,5-tetrahydro-3′H-4,4′biimidazolyl-2-one] belongs 0.4 µM; to `O=C(C/N=C1\NC(=S)N(c2ccc3[nH]cnc3c2)C1c1cc2ccccc2s1)N1CCSCC1` (stereo not drawn) [Compound 207, 2-(5-(benzo[b]thiophen-2-yl)-1-(1H-benzo[d]imidazol-5-yl)-2-thioxoimidazolidin-4-ylideneamino)-1-thiomorpholinoethan-one], 4 µM; to `CCCC1/C(=N\c2ccc3c(c2)OCCO3)NC(=O)N1CCCn1ccnc1` (stereo not drawn) [Compound 29, 4-2,3-Dihydro-benzo1,4dioxin-6-ylimino-1-(3-imidazol-1-yl-propyl)-5-propyl-imidazolidin-2-one], 8.5 µM.
The value for `O=C1N/C(=N/CCc2c[nH]c3ccccc23)C(c2cc(F)cc(F)c2)N1CCCn1ccnc1` (stereo not drawn) [Compound 53, 5-(3,5-Difluoro-phenyl)-1-(3-imidazol-1-yl-propyl)-4-2-(1H-indol-3-yl)-ethylimino-imidazolidin-2-one] was 4 µM.
With `Cc1ccc(C2/C(=N\Cc3ccc4[nH]ccc4c3)NC(=O)N2c2ccc3[nH]cnc3c2)cc1` (stereo not drawn) [Compound 170, 1-(1H-Benzoimidazol-5-yl)-4-1H-indol-5-ylmethylimino-5-p-tolyl-imidazolidin-2-one], the IC50 was 0.004 µM.
Turning to `O=C1N/C(=N\C(c2ccccc2)c2ccccc2)C(CO)N1CCCn1ccnc1` (stereo not drawn) [Compound 85, 4-Benzhydrylimino-5-hydroxymethyl-1-(3-imidazol-1-yl-propyl)-imidazolidin-2-one], the IC50 was 6.7 µM.
Regarding `CC(C)C1/C(=N\C(C)(C)CC(C)(C)C)NC(=S)N1c1ccc2[nH]cnc2c1` (stereo not drawn) [Compound 178, 1-(1H-Benzoimidazol-5-yl)-5-isopropyl-4-1,1,3,3-tetramethyl-butylimino-imidazolidine-2-thione], the half-maximal inhibitory concentration (IC50) is 6.7 µM.
On to `O=C1N/C(=N\C2CC2)C(c2ccccc2C(F)(F)F)N1c1ccc2[nH]cnc2c1` (stereo not drawn) [Compound 158, 1-(1H-Benzoimidazol-5-yl)-4-cyclopropylimino-5-(2-trifluoromethyl-phenyl)-imidazolidin-2-one], for which the concentration for half-maximal inhibition (IC50) was determined as 4.9 µM.
Regarding `CN(C)c1ccc(C2/C(=N\Cc3cccnc3)NC(=O)N2c2ccc3[nH]cnc3c2)cc1` (stereo not drawn) [Compound 180, 1-(1H-Benzoimidazol-5-yl)-5-(4-dimethylamino-phenyl)-4-pyridin-3-ylmethylimino-imidazolidin-2-one], the concentration for half-maximal inhibition (IC50) turned out to be 0.4 µM.
The value for `CCC1/C(=N\CCc2c[nH]c3ccccc23)NC(=O)N1CCCn1ccnc1` (stereo not drawn) [Compound 60, 5-Ethyl-1-(3-imidazol-1-yl-propyl)-4-2-(1H-indol-3-yl)-ethylimino-imidazolidin-2-one] was 5.8 µM; that for `C/N=C1/NC(=O)N(c2ccc3[nH]cnc3c2)C1c1ccc(Cl)c(F)c1` (stereo not drawn) [Compound 339, 1-(1H-Benzoimidazol-5-yl)-5-(4-chloro-3-fluoro-phenyl)-4-methylimino-imidazolidin-2-one] was 0.4 µM.
With `CCc1ccccc1/N=C1\NC(=S)N(c2ccc3nc[nH]c3c2)C1C1CCC(C)=CC1C` (stereo not drawn) [Compound 288, 1-(3H-Benzoimidazol-5-yl)-5-(2,4-dimethyl-cyclohex-3-enyl)-4-2-ethyl-phenylimino-imidazolidine-2-thione], the half-maximal inhibitory concentration (IC50) amounted to 7.6 µM.
For `O=C(C/N=C1/NC(=O)N(c2ccc3[nH]cnc3c2)C1c1ccc(Cl)cc1)N1CCC(O)C1` (stereo not drawn) [Compound 340, 1-(1H-Benzoimidazol-5-yl)-5-(4-chloro-phenyl)-4-2-(3-hydroxy-pyrrolidin-1-yl)-2-oxo-ethylimino-imidazolidin-2-one], the IC50 is 4 µM.
As to `O=C1N/C(=N/CCc2cccs2)C(c2cc3c(cc2Br)OCO3)N1c1ccc2nc[nH]c2c1` (stereo not drawn) [Compound 314, 1-(3H-Benzoimidazol-5-yl)-5-(6-bromo-benzo1,3dioxol-5-yl)-4-2-thiophen-2-yl-ethylimino-imidazolidin-2-one], the 50% inhibitory concentration (IC50) was 0.004 µM.
To `O=C1N/C(=N\CCC(c2ccccc2)c2ccccc2)C(c2cc(F)cc(F)c2)N1CCCn1ccnc1` (stereo not drawn) [Compound 108, 5-(3,5-Dihydro-phenyl)-4-3,3-diphenyl-propylimino-1-(3-imidazol-1-yl-propyl)-imidazolidin-2-one] belongs 6.7 µM; to `S=C1N/C(=N/CCCc2ccccc2)C(c2cc(Br)cc(Br)c2)N1c1ccc2[nH]cnc2c1` (stereo not drawn) [Compound 131, 1-(1H-Benzoimidazol-5-yl)-5-(3,5-dibromo-phenyl)-4-3-phenyl-propylimno-imidazolidine-2-thione], 5.8 µM; to `Cc1ccc(C2/C(=N/C(C)(C)CC(C)(C)C)NC(=S)N2c2ccc3nc[nH]c3c2)cc1` (stereo not drawn) [Compound 118, 1-(3H-Benzoimidazol-5-yl)-4-1,1,3,3-tetramethyl-butylimino-5-p-tolyl-imidazolidine-2-thione], 5.8 µM.
To `O=C1N/C(=N\Cc2ccc(Cl)cc2)C(c2ccccc2F)N1CCCn1ccnc1` (stereo not drawn) [Compound 23] belongs 4 µM.
To `O=C1N/C(=N\c2ccc3c(c2)OCCO3)C(c2ccc3c(c2)OCO3)N1c1ccc2[nH]cnc2c1` (stereo not drawn) [Compound 292, 5-Benzo1,3dioxol-5-yl-1-(1H-benzoimidazol-5-yl)-4-2,3-dihydro-benzo1,4dioxin-6-ylimino-imidazolidin-2-one] belongs 1.3 µM; to `O=C1N/C(=N\c2ccc(Oc3ccccc3)cc2)C(C2CCC=CO2)N1CCCn1ccnc1` (stereo not drawn) [Compound 100, 5-(3,4-Dihydro-2H-pyran-2-yl)-1-(3-imidazol-1-yl-propyl)-4-4-phenoxy-phenylimino-imidazolidin-2-one], 4.9 µM.
Regarding `CN1CCCN(C(=O)C/N=C2/NC(=O)N(c3ccc4[nH]cnc4c3)C2c2ccc3[nH]ccc3c2)CC1` (stereo not drawn) [Compound 307, 1-(1H-Benzoimidazol-5-yl)-5-(1H-indol-5-yl)-4-2-(4-methyl-1,4diazepan-1-yl)-2-oxo-ethylimino-imidazolidin-2-one], the half-maximal inhibitory concentration (IC50) is 2.2 µM.
With `CCCCC1C(=Nc2ccc(Oc3ccccc3)cc2)NC(=O)N1CCCn1ccnc1` (stereo not drawn) [Compound 103, 5-Butyl-1-(3-imidazol-1-yl-propyl)-4-4-phenoxy-phenylimino-imidazolidin-2-one], the IC50 worked out at 9.4 µM.
With `Cc1ccc2occ(C3/C(=N/C4CCCCC4O)NC(=O)N3c3ccc4[nH]cnc4c3)c(=O)c2c1` (stereo not drawn) [Compound 127, 1-(1H-Benzoimidazol-5-yl)-4-2-hydroxy-cyclohexylimino-5-(6-methyl-4-oxo-4H-chromen-3-yl)-imidazolidin-2-one], the IC50 stood at 4 µM.
To `O=C(C/N=C1/NC(=O)N(CCCn2ccnc2)C1c1ccc(Cl)c(F)c1)N1Cc2ccccc2C1` (stereo not drawn) [Compound 13, 5-(4-Chloro-3-fluoro-phenyl)-4-2-(1,3-dihydro-isoindol-2-yl)-2-oxo-ethylimino-1-(3-imidazol-1-yl-propyl)-imidazolidin-2-one] belongs 8.3 µM; to `O=C(C/N=C1\NC(=O)N(c2ccc3[nH]cnc3c2)C1c1ccccc1Cl)N1CCSCC1` (stereo not drawn) [Compound 135, 1-(1H-Benzoimidazol-5-yl)-5-(2-chloro-phenyl)-4-2-oxo-2-thiomorpholin-4-yl-ethylimino-imidazolidin-2-one], 5.8 µM.

Broadly, the IC50 is the concentration at which inhibition is half-maximal.

Values taken from US20080221086A1, “Novel Inhibitors of Glutaminyl Cyclase” (PROBIODRUG AG, priority 2006, published 2008).
